Source: patent US20260152777A1, “METHOD FOR PRODUCING EPIGALLOCATECHIN GALLATE MONOGLUCOSIDE” (GIVAUDAN SA, priority 2022, published 2026)

Assays:
Format in all cases: in vivo, human
[1] = test system: Asian volunteers with dull skin and large senescence spots; experiment: Clinical study: skin biomechanical properties by Cutometer (R0, firmness); details: for Firmness effect (R0) Average variation (%) vs D 0 / Firmness effect (R0) Mean +/− SD: hemiface
Text: (§1) For this study, volunteers applied the cream twice a day for 56 days.
(§2) GLYCOL, DIMETHICONE, FRAGRANCE
(§3) Volunteers were divided into two groups as follows: • Group 1: 20 Asian women testing the active cream in comparison to the placebo cream with an average age of 54±5 years. • Group 2: 18 Asian women testing the vitamin C cream in comparison to the placebo cream with an average age of 53±8 years.
(§4) Volunteers applied a cream containing 0.4% of active, 2% of ascorbic acid (vitamin C), respectively, on one hemiface and a placebo cream on the other hemiface […] for 56 days.
(§5) During this study, a skin color and spots analysis was conducted using Colorface®, biomechanical properties were tested using Cutometery®, and the dermis thickness was determined using a DUB SkinScanner 75® probe (max. depth of 3.28 mm).
The analysis of the mechanical properties of the skin enables to assess the functional state of the following tissue structures: • The elastic structures, such as elastic fibers, curvature of the connective bundles, wrinkles of the stratum corneum; and • the viscous-behaving structures, such as interstitial fluids, internal adherences.
The study was performed using a Cutometer® MPA 580 (Courage & Khazaka). The measuring principle is based on the suction method: Negative pressure is created in the device and the skin is drawn into a cylindrical aperture (2 mm in diameter) of the probe. Inside the probe, the penetration depth is determined by an optical measuring system. Each suction phase is followed by a relaxing phase.
In the present study, the following program was used: • Length of the cycle: 4 seconds • Suction: 2 seconds • Relaxation: 2 seconds • Negative pressure: 450 millibars • Diameter of the chamber: 2 mm • Area measured: crow's feet
From these curves, the parameters can be calculated. • During the suction phase, the deformation of the skin by the negative pressure measures first the elastic resistance and then the viscous component, which taken together represent skin firmness. • During the relaxation phase, the immediate recovery of the skin measures sheer cutaneous elasticity, whereas the delayed return of the skin to its initial position measures the viscoelastic component.
This study focused on the R0 or Uf parameter, which represents the amplitude of the skin during the suction phase. At equal pressure, the more flexible the skin, the greater the amplitude. Thus R0 (or UF) will evaluate the viscoelastic dispensability, or in other words, the firmness of the skin.
These parameters were measured on D0, D28, D56.

[2] = test system: Asian volunteers with dull skin and large senescence spots; experiment: Clinical study: ultrasound measurement of dermis density using DUB SkinScanner; details: for Dermis density Mean +/− SD / Dermis density change vs D 0: cream with 2% ascorbic acid, hemiface, Asian women
Text: as §1, §2, §3, §4, §5
The DUB Skin Scanner system is a high-frequency, high-resolution ultrasound diagnostic tool for use in dermatology, cosmetics and pharmaceuticals and clinical research. 75 MHz ultrasound is a popular method for non-invasive skin analysis. High frequency ultrasound (75 MHz) can explore the superficial layers of the skin and can penetrate up to 3 mm into the skin. Skin ultrasound is based on the population of ultrasound in the skin and on the direction and measurement of the amplitudes of the part reflected by the interfaces separating two media having different characteristics of acoustic waves. An ultrasound imaging technique used for the visualization of the structure of the subcutaneous body allows the evaluation of the homogeneity of the skin, including the density and the skin thickness.
Three measurements of thickness and density were taken to obtain an average for each image.
For this study, the analysis of the density of the dermis was carried out on D0, D28 and D56.

[3] = test system: Asian volunteers with dull skin and large senescence spots; experiment: Clinical study: skin color analysis using Colorface (homogeneity, radiance, pigment defect); details: for Pigment defect Mean +/− SD / Radiance Mean +/− SD / Pigment defect Average volume (mm^3) vs D 0 / Radiance Average variation (%) vs D 0: cream with 2% ascorbic acid, hemiface, Asian women; for pigment homogeneity, fold better than the placebo: vitamin C cream 2%
Text: For this study, volunteers applied the cream twice a day for 56 days. […]
as §3, §4, §5
Skin color measurements were performed based on photos taken with the Colorface® acquisition system. Colorface® is a 2D acquisition system for taking standardized and multimodal photos of the entire face. The device is equipped with a 24M pixel sensor and also has a specific UV lamp. The acquisition methods are: UltraViolet, photo without filter, cross-polarized photo, parallel-polarized photo, standard 45° photo, and standard […].
An analysis of the radiance of the complexion, pigment spots, color (L*,a*,b* parameters) and melanin on the spots from photos using image analysis software was performed. 2D photos of the face were taken on D0, D28 and D56.

[4] = cream with 2% ascorbic acid, Asian women, D 28
[5] = cream with 2% ascorbic acid, Asian women, D 56

O=C(O[C@@H]1Cc2c(O)cc(O)cc2O[C@@H]1c1cc(O)c(O[C@H]2O[C@H](CO)[C@@H](O)[C@H](O)[C@H]2O)c(O)c1)c1cc(O)c(O)c(O)c1 [epigallocatechin gallate 4′-O-α-monoglucoside]
improvement of skin firmness relative to the placebo cream ([1]; active cream 0.4%, Asian women): up to 21 fold
Firmness effect (R0) Average variation (%) vs D 0 ([1]; active cream 0.4%, Asian women, D 28): ~8.7%
Firmness effect (R0) Average variation (%) vs D 0 ([1]; active cream 0.4%, Asian women, D 56): −8.2%
improvement of skin firmness, times better than placebo ([1]; after 56 days): up to 21 times
increase of the dermis density ([2]; summary statement, clinical evaluation on Asian volunteers): up to 16.6%
effect on pigment homogeneity, times more pronounced relative to the placebo ([3]; active cream 0.4%, after 28 days): 3.0 times
reduction of pigment defect (melanin content in pigmented spots area) compared to the placebo ([3]; active cream 0.4%, after 56 days): up to −21.7%

O=C1O[C@H]([C@@H](O)CO)C(O)=C1O [Ascorbic acid, ascorbic acid]
Firmness effect (R0) Mean +/− SD ([1]; cream with 2% ascorbic acid, Asian women, D 0 (baseline)): 0.283 ± 0.036 arbitrary unit
Firmness effect (R0) Average variation (%) vs D 0 [1, 4]: −6.9%
Firmness effect (R0) Mean +/− SD [1, 4]: 0.263 ± 0.032 arbitrary unit
Firmness effect (R0) Average variation (%) vs D 0 [1, 5]: −6.5%
Firmness effect (R0) Mean +/− SD [1, 5]: 0.264 ± 0.046 arbitrary unit
Dermis density Mean +/− SD ([2]; D 0 (baseline)): 37.7 ± 8.1 arbitrary unit
Dermis density Mean +/− SD ([2]; D 28): 39.1 ± 8.3 arbitrary unit
Dermis density change vs D 0 ([2]; D 28): +3.8%
Dermis density Mean +/− SD ([2]; D 56): 40.7 ± 9.2 arbitrary unit
Dermis density change vs D 0 ([2]; D 56): +7.2%
Pigment defect Mean +/− SD ([3]; D 0 (baseline)): 15660 ± 4532 arbitrary unit
Radiance Mean +/− SD ([3]; D 0 (baseline)): 72.3 ± 1.6 arbitrary unit
Pigment defect Average volume (mm^3) vs D 0 ([3]; D 28): −11.7%
Pigment defect Mean +/− SD ([3]; D 28): 13826 ± 4311 arbitrary unit
Radiance Average variation (%) vs D 0 ([3]; D 28): 0.7%
Radiance Mean +/− SD ([3]; D 28): 72.7 ± 1.9 arbitrary unit
Pigment defect Average volume (mm^3) vs D 0 ([3]; D 56): −16.5%
Pigment defect Mean +/− SD ([3]; D 56): 13078 ± 3731 arbitrary unit
Radiance Average variation (%) vs D 0 ([3]; D 56): 1.4%
Radiance Mean +/− SD ([3]; D 56): 73.3 ± 2.3 arbitrary unit
pigment homogeneity, fold better than the placebo ([3]; day 28): 1.6 fold
pigment homogeneity, fold better than the placebo ([3]; day 56): 1.8 fold
